Assay results reported in article PMC4186413, “Identification of metabolic pathways and enzyme systems involved in the in vitro human hepatic metabolism of dronedarone, a potent new oral antiarrhythmic drug” (Pharmacology Research & Perspectives, 2014).
Each block holds one compound with its values, some of them ahead of it.

Key:
CYP3A4 = molecular target: T1, CYP3A4 (Homo sapiens, UniProt P08684); assay: Oxidation by recombinant human CYP3A4; format: in vitro ADME; settings: for Percentage of oxidation (unchanged drug disappearance) by CYP3A4: 100 pmol/mL, 5 μmol/L, 30 min, NADPH
T1 construct: purchased BD Gentest (Woburn, MA); host or cells: baculovirus-infected insect cells
T1 sequence (P08684 whole entry): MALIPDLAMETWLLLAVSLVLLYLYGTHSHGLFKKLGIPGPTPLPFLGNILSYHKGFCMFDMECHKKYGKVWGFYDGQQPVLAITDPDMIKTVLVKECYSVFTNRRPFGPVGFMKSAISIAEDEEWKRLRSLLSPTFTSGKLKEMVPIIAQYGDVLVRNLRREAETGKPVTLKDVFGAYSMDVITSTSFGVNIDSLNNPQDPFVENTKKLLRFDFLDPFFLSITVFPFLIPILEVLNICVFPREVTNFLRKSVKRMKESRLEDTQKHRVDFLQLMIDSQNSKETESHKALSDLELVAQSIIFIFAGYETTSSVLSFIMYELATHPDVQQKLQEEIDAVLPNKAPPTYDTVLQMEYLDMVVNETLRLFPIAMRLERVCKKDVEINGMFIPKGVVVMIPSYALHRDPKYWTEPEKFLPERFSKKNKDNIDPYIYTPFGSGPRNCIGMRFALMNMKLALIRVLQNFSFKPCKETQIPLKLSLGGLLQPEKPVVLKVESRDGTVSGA
Description: (§1) Recombinant human CYPs (Supersomes™; BD Gentes, Woburn, MA: CYP1A1, CYP1A2, CYP2A6, CYP2B6, CYP2C8, CYP2C9, CYP2C18, CYP2C19, CYP2D6, CYP2E1, CYP3A4 and CYP3A5), FMOs (Supersomes™: FMO1, FMO3, FMO5), MAOs (Supersomes™: MAO-A and MAO-B), and UGTs (Supersomes™: UGT1A1, UGT1A3, UGT1A4, UGT1A6, UGT1A7, UGT1A8, UGT1A9, UGT1A10, UGT2B4, UGT2B7, UGT2B15, and UGT2B17) expressed in baculovirus-infected insect cells and control microsomes from insect cells infected with wild-type baculovirus were all obtained from BD Gentest (Woburn, MA).
For oxidative pathways, the assay mixture was composed of human liver microsomes (1 mg·m·L^−1) or microsomes of baculovirus-infected cells expressing human enzymes (100 pmol·mL^−1 for CYPs and 1 mg·mL^−1 for FMOs and MAOs), nicotinamide adenine dinucleotide phosphate reduced form (NADPH) (1 mmol/L), 100 mmol/L potassium phosphate (pH 7.4), and 5 μmol/L of the investigated compound dissolved in DMSO in a final volume of 500 μL.
The final concentration of DMSO in the reaction mixture was less than 1% (v/v). Initial rate conditions with respect to time and protein concentration for both the disappearance of unchanged drug and the formation of respective metabolites were established in preliminary studies. […]
(§2) In human liver microsomes and recombinant isoforms, the percentage of metabolism was determined on the basis of unchanged drug disappearance, using the following equation [drawing 1] where UDt = 30 min represents the unchanged drug peak area after a 30-min incubation period and UDt = 0, the unchanged drug peak area at t = 0. […]
(§3) Figure 5 Contribution of individual CYPs, FMOs and MAOs to the oxidation of dronedarone and its metabolites. […] Unchanged drugs were quantified by LC/MS-MS relative to the synthetic references as described in Materials and Methods. Data are expressed as the percentage of oxidation.

MAO-B = molecular target: T2, MAO-B (Homo sapiens, UniProt P27338); assay: Oxidation by recombinant human MAO-B; format: in vitro ADME; settings: 1 mg/mL, 5 μmol/L, 30 min, no cofactor
T2 construct: purchased BD Gentest (Woburn, MA); host or cells: baculovirus-infected insect cells
T2 sequence (P27338 whole entry): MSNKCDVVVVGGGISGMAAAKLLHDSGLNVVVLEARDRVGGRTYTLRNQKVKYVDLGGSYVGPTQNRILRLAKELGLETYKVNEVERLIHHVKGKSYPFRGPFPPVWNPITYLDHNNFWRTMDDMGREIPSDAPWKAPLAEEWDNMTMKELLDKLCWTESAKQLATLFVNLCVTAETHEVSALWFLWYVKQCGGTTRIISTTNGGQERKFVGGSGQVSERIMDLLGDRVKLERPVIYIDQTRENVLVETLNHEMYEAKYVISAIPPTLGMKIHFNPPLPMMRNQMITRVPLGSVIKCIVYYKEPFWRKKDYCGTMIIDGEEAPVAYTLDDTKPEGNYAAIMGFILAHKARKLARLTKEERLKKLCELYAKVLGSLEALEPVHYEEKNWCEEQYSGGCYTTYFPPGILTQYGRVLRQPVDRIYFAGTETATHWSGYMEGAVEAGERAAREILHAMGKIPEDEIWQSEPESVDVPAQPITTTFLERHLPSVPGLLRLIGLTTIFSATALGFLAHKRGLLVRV
Description: as §1, with “MA). […]” for “MA).”
as §2, §3

CYP2D6 = molecular target: T3, CYP2D6 (Homo sapiens, UniProt P10635); settings: reversible inhibition, human liver microsomes, reported; cited from earlier work
T3 construct: purchased BD Gentest (Woburn, MA); host or cells: baculovirus-infected insect cells
T3 sequence (P10635 whole entry): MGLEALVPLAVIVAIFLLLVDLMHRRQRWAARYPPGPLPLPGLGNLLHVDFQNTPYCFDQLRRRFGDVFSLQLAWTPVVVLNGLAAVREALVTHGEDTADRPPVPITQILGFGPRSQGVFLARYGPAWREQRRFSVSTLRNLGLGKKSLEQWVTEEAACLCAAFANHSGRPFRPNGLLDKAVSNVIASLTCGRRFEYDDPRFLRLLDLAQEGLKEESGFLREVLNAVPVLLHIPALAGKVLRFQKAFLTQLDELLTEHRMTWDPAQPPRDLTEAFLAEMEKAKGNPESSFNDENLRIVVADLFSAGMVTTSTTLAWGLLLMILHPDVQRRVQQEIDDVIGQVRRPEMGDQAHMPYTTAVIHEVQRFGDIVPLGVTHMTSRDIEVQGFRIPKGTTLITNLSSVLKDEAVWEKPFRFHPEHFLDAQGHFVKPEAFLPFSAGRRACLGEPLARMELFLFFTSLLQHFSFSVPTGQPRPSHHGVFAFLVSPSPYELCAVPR

[1] = cited from earlier work
[2] = set-up: method as in Touboul et al. [2003]; Wadhani et al. [2006]; settings: 400-mg twice daily, ref Touboul et al. [2003]; Wadhani et al. [2006]; cited from earlier work
[3] = Glucuronidation by human hepatic microsomal fractions with UDPGA; format: in vitro ADME; settings: 5 μmol/L; for Metabolism in the presence of UDPGA: UDPGA as cofactor
Experimental: Human hepatic microsomal fractions were obtained from a large pool of human liver (150 individuals) prepared by BD Gentest-Biosciences (BD UltraPool™ HLM 150 – catalogue reference, 452118 Easy Count Box, Woburn, MA). This pooled human liver microsomal batch was also validated internally by the use of FDA-recommended CYP probes (FDA guidance for Industry, draft guidance February 2012).
For glucuronidation pathways, the assay mixture was composed of human liver microsomes (2 mg·mL^−1) or microsomes of baculovirus-infected cells expressing human UGTs (1 mg·mL^−1), uridine 5′-diphosphoglucuronic acid (UDPGA) (3 mmol/L), 100 mmol/L Tris HCl (pH 7.4) containing 5 mmol/L MgCl2 and 5 μmol/L of the investigated compound dissolved in DMSO in a final volume of 500 μL. The final concentration of DMSO in the reaction mixture was less than 1% (v/v). Initial rate conditions with respect to time and protein concentration for both the disappearance of unchanged drug and the formation of respective metabolites were established in preliminary studies. The microsomal mixture was first incubated for 10 min at 4°C in the presence of alamethicin (0.125 mg·mL^−1), then the reaction was initiated by addition of UDPGA (30 mmol/L aqueous solution) to achieve a final concentration of 3 mmol/L for UGT-dependent reactions, incubated at 37°C and stopped after 0–30 min by addition of one volume of ice-cold acetonitrile.
After removal of the proteins by centrifugation at 10,000 rpm for 10 min, a portion of the supernatant was analyzed by LC-UV-MS.
Since a N-glucuronidation process could not be excluded, and because some of the metabolites bear either, a free hydroxyl group or carboxylic acid function, glucuronidation of dronedarone and its potential metabolites was also investigated in human hepatic microsomal fractions in the presence of UDPGA as cofactor. Only propanoic acid-dronedarone and phenol-dronedarone were metabolized in the presence of UDPGA.
Figure 6 Quantitative glucuronidation of propanoic acid-dronedarone (A) and phenol-dronedarone (B) during a 30-min incubation of human hepatic microsomal fractions (1 mg/mL final concentration) with 5 μmol/L unchanged drug in the presence of UDPGA. The kinetics of propanoic acid-dronedarone disappearance (○-○), phenol-dronedarone disappearance and their respective glucuronide formation (●-●, dashed line) were recorded over 30 min. Propanoic acid-dronedarone and phenol-dronedarone were quantified by LC/MS-MS relative to the synthetic references, while the peak area of their respective identified glucuronide was expressed in arbitrary units (×10^3), as described in Materials and Methods.

CYP1A1 = molecular target: T4, CYP1A1 (Homo sapiens, UniProt P04798); assay: Oxidation by recombinant human CYP1A1; format: in vitro ADME; settings: 100 pmol/mL, 5 μmol/L, 30 min, NADPH
T4 construct: purchased BD Gentest (Woburn, MA); host or cells: baculovirus-infected insect cells
T4 sequence (P04798 whole entry): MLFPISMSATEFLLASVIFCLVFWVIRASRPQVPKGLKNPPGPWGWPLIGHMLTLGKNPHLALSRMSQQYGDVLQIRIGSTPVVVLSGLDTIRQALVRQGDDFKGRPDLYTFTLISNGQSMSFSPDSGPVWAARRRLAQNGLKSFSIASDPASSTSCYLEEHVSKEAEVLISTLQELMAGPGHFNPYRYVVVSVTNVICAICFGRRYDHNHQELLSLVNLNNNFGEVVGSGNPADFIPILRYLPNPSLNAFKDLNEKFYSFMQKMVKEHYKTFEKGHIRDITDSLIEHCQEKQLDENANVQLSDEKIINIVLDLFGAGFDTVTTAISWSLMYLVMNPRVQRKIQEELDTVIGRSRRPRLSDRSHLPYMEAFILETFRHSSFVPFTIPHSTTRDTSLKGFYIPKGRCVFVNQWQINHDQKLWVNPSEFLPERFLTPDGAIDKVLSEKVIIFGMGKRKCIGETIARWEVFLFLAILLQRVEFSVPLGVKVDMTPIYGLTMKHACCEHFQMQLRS
Description: as §1, with “MA). […]” for “MA).”
as §2, §3

Percentage of oxidation (unchanged drug disappearance) by CYP3A4 (CYP3A4): 21%
Metabolite formed, as percent of initial dronedarone concentration, with CYP3A4 (CYP3A4; 5 μmol/L dronedarone, end of 30-min incubation): 60%
Metabolism by MAO-B (MAO-B): no metabolism occurred
Compound: CCCCNCCCOc1ccc(C(=O)c2c(CCCC)oc3ccc(NS(C)(=O)=O)cc23)cc1 [N-debutyl-dronedarone]

Percentage of oxidation (unchanged drug disappearance) by CYP3A4 (CYP3A4): 94%
Compound: CCCCc1oc2ccc(NS(C)(=O)=O)cc2c1C(=O)c1ccc(OCCCN(CCCC)CCCC)cc1.Cl [Dronedarone, N-(2-Butyl-3-(4-(3-(dibutylamino)propoxy)benzoyl)-5-benzofuranyl)methanesulfonamide, hydrochloride]
Ki (CYP2D6): 5 µM
Increase of dronedarone exposure by ketoconazole ([1]; after single dose, clinical findings): 25 fold
Increase of steady state exposure of metoprolol ([1]; dronedarone 400–800 mg twice a day, metoprolol 200 mg daily, CYP2D6 extensive metabolizers, ref Damy et al. [2004]): 1.6- to 2.3 folds
Increase of steady state concentrations of simvastatin and its active metabolite ([1]; healthy volunteers, dronedarone 400 mg BID): 2- to 4 fold
Dose excreted in feces mainly as metabolites ([1]; human, in vivo): 84%
Eliminated by first-pass metabolism in the liver by CYP3A4 enzymes ([1]; human, in vivo): > 84%
Increase of trough sirolimus concentrations ([1]; kidney-transplant patient, 3 day-treatment with twice daily 400 mg dronedarone, ref Tichy et al. [2010]): up to threefold
Lowering of dronedarone exposure by rifampicin ([1]; rifampicin 600 mg once daily for 7 days): 5 fold
Incidence of any QTc interval >500 msec [2]: 7.7%
PR interval increase [2]: 13.4 ms

Metabolism in the presence of UDPGA [3]: metabolized
Unchanged drug remaining, percent of initial concentration ([3]; UDPGA, 30th minute of incubation): 70%
Percentage of oxidation (unchanged drug disappearance) by CYP1A1 (CYP1A1): 59%
Compound: CCCCc1oc2ccc(NS(C)(=O)=O)cc2c1C(=O)c1ccc(OCCC(=O)O)cc1 [Propanoic acid-dronedarone]

Metabolism in the presence of UDPGA [3]: metabolized
Initial drug metabolized ([3]; UDPGA, in 10 min): more than 70%
Percentage of oxidation (unchanged drug disappearance) by CYP1A1 (CYP1A1): 99%
Compound: CCCCc1oc2ccc(NS(C)(=O)=O)cc2c1C(=O)c1ccc(O)cc1 [Phenol-dronedarone]
